Assay [1] concerns aggressive behavior of male Swiss albino mice. The experiment in a line: Resident intruder task, aggressive behavior (Example 5). The following applies: for agitation/aggression in resident mice: mouse, in vivo. The class given is in vivo. The text has this:
Animal groups: Swiss albino male mice were distributed in 13 different experimental groups with 6-14 mice per group as illustrated in Table 9. Each experimental group was also coded so that the experimenter became unaware of the true experimental group during RI assay.
Rationale: The resident-intruder stress is an ethologically relevant model to examine mechanisms underlying stress-related psychiatric disorders. In male rats, a single resident-intruder exposure activates LC neurons. Considered as a major stress response system, LC-NE activation is critical in maintaining arousal in response to acute stress.
Study drugs: The test substances (Dexmedetomidine hydrochloride, latrepirdine dihydrochloride hydrate and sodium valproate) were dissolved in 0.9% normal saline which served as the vehicle. β-Estradiol was dissolved in 0.9% normal saline.
Study design and dosing: Bilateral ovariectomy surgery was carried out in 3-4 weeks old female Swiss albino mice as per the standard methods (Alagwu and Nneli, 2005). Animals were anesthetized using Avertin (2,2,2-Tribromoethanol) at 250 mg/kg, i.p. and were laid down on the surgery table and fixed with adhesive plaster. A midline incision was made on the dorsal region below the rib and 1 cm lateral to the either side of midline, a small incision was made on fascia to isolate the adipose fat supporting the ovaries. By slowly pulling out the fat tissue, the ovary was identified and excised the following uterine horn ligation with silk sutures. Fascia was covered with sutures and similar procedure was repeated on the other side as well. Superficial skin layers were sutured and gentamicin (80 mg/kg, s.c.) was given as antibiotic and meloxicam (4 mg/kg, s.c.) as analgesic, then povidone iodine was applied on superficial skin layers. Polyethylene glycol (PEG) was applied to prevent drying of eye balls and kept for recovery period of 3 weeks (surgery was carried by a single experimenter). Male Swiss albino mice (25-40 grams, Resident animals) was housed individually i.e., 1 animal/cage with an ovariectomized female Swiss albino mice for a period of three weeks (Isolated habituation). During this habituation period, female mice were treated with β-Estradiol at a dose of 0.2 mg/kg, s.c. Male Swiss albino mice (10-20 grams, Intruder animals) were housed 5 animals/cage for a period of five days (Social habituation). On the day of exposure, animals were brought into the experimental room 60 minutes before starting the experiment, to habituate them to the experimental conditions. […]
Statistical analysis: Data obtained was compared with basal scoring by using Student's paired two tailed t-test. Duration of attack, and latency of attack between the groups was analyzed using One-Way ANOVA followed by Bonferroni's posthoc test. […]

In assay [2] the test system is CCK-4 induced panic anxiety in rats. As to the kind of experiment: Elevated plus maze, CCK-4 induced panic anxiety (Example 8). The format is in vivo, Wistar rats. The following applies: for Entries, % increase as compared to CCK-4/Vehicle / Entries, Mean ± SEM / Time, % increase as compared to CCK-4/Vehicle / Time, Mean ± SEM: CCK4 0.2 mg/kg i.p. The source says:
Rationale: In the past two decades panic induction with cholecystokinin-tetrapeptide (CCK-4) as an experimental model of human anxiety has become a focus of intensive research. CCK-4 is a synthetic analog of the endogenous neuropeptide cholecystokinin (CCK), which has been found in different brain regions. Particularly, high concentrations of CCK have been detected in regions that have been implicated in the mediation of panic attacks such as the cerebral cortex, amygdala, hippocampus, and brainstem nuclei. CCK-4 dose dependently induces panic attacks in healthy controls. Thus, CCK-4 has been postulated to fulfil the criteria for an ideal and valid panicogenic agent. […] Therefore, the CCK-4 challenge paradigm can serve as a useful tool to evaluate the anti-panic potential of novel anxiolytic compounds.
Animal groups: Male Wistar Rats were purchased at a body weight of 150 g and reached a body weight of about 220 g at the time of use. Animals were distributed in 6 different experimental groups with 12 […] per group as illustrated in Table 11. Each experimental group was also coded so that the experimenter became unaware of the true experimental group at the time EPM trial.
Study drugs: All compounds/drugs were prepared in saline (0.9% NaCl).
CCK-4 was prepared at a solution of 0.2 mg/ml which when injected i.p. at a dosage volume of 1 ml/kg results in a dose of 0.2 mg/kg.
Diazepam was prepared at a solution of 1 mg/ml which when injected i.p. at a dosage volume of 1 ml/kg results in a dose of 1 mg/kg.
Latrepirdine was prepared at concentrations of 2.5, 7.5, 25 and 37.5 mg/ml which when injected i.m. at a volume of 100 μL for a rat of 250 g results in doses of 1, 3, 10 and 15 mg/kg respectively.
Study design and dosing: The rats were randomly assigned to one of the different experimental groups. Each animal was identified by its group name, cage number, series (day) of experiment, and a number (from 1 to 4) written with permanent ink on its tail. They were handled by an experimenter for about 3 min each day during 1 week prior to the day of EPM trial.
The apparatus is a PVC maze covered with Plexiglas and subdivided into four equal exploratory arms (40×10 cm), which are all interconnected by a small platform (10×10 cm). The apparatus is placed 65 cm above the floor. Two arms are opened, and two others are closed with wall (high: 10 cm).
After compound administration, rat is placed on the platform opposite a closed arm. The number of entries and the time spent in each arm are recorded during a 5 min period. The animal is considered as entered in an arm when it places its four paws in the arm.
Statistical analysis: Data was analyzed using One-Way ANOVA followed by multiple comparison with Dunnett's post-hoc test. All statistical analyses were performed using GraphPad Prism software package (Version 9) and p value below 0.05 was considered as significant.

Setting [3] is: 1-15 mg/kg i.m., CCK-4 treated rats.

Experimental findings from patent US20260325500A1, “METHODS AND COMPOSITIONS FOR TREATING ACUTE STRESS DISORDER” (BioXcel Therapeutics, Inc., priority 2022, published 2026) are described below.

SMILES strings stand for the structures. Structures can show the parent of a compound that is named as a salt. Marks after values point to notes of the source that are not given here.

In the case of `Cc1ccc2c(c1)c1c(n2CCc2ccc(C)nc2)CCN(C)C1` [latrepirdine dihydrochloride hydrate], the duration of attack result in assay [1] (1 mg/kg, 3 mg/kg and 10 mg/kg, i.p.) was “significantly decreased”. The “agitation/aggression in resident mice” value in assay [1] is reported as “decreased agitation/aggression”. The “Entries, % increase as compared to CCK-4/Vehicle” value was “(47.37) %” in assay [2] (1 mg/kg i.m.), “(31.58) %” in assay [2] (3 mg/kg i.m.), “(73.68) * %” in assay [2] (10 mg/kg i.m.) and “(126.32) *** %” in assay [2] (15 mg/kg i.m.). For the same compound, the “Entries, Mean ± SEM” value in assay [2] (1 mg/kg i.m.) amounted to 2.8 ± 0.4 n; in assay [2] (3 mg/kg i.m.), 2.5 ± 0.2 n; in assay [2] (10 mg/kg i.m.), 3.3 ± 0.3 n; in assay [2] (15 mg/kg i.m.) it was 4.3 ± 0.4 n. Also, the “Time, % increase as compared to CCK-4/Vehicle” value is on record as “(83.33) %” in assay [2] (1 mg/kg i.m.), “(98.48) %” in assay [2] (3 mg/kg i.m.), “(158.33) ** %” in assay [2] (10 mg/kg i.m.) and “(266.67) **** %” in assay [2] (15 mg/kg i.m.). The “Time, Mean ± SEM” value in assay [2] (1 mg/kg i.m.) was 24.2 ± 4.7 s; in assay [2] (3 mg/kg i.m.) it was 26.2 ± 3.3 s; in assay [2] (10 mg/kg i.m.), 34.1 ± 3.4 s; in assay [2] (15 mg/kg i.m.), 48.4 ± 5.3 s.
Turning to `Cc1ccc2c(c1)c1c(n2CCc2ccc(C)nc2)CCN(C)C1` [latrepirdine, 2,8-dimethyl-5-[2-(6-methylpyridin-3-yl)ethyl]-3,4-dihydro-1H-pyrido[4,3-b]indole], the “mean duration of attack” value in assay [1] (latrepirdine 10 mg/kg, i.p.) is 36.87 s. Also, the “agitation/aggression in resident mice” value in assay [1] is “significantly decreased agitation/aggression in resident mice”. Moreover, in assay [2] (setting [3]), the “dose with the greatest effect on entries and time in open arms” value is 15 mg/kg; the “number of entries to and time spent in the open arms, significance” value was “significant at the doses of 10 and 15 mg/kg”.
